Assay results: US10807951B2, “mTORC1 modulators” (THE REGENTS OF THE UNIVERSITY OF CALIFORNIA, priority 2017, dated 2020)
Where “and” joins values, the source holds several entries; their conditions need not be identical. Identical values can stand only once. Entries after “also recorded” stand apart in the source; their conditions may differ. Like-named read-outs stand apart in the source and are kept apart here.

Columns and labels:
[1] = tested on: mTORC1; experiment: mTORC1 signaling in HeLa cells by immunoblotting; type: cell-based; settings: for mTORC1-mediated signaling (p-ULK1, pS6K1, p-4E-BP1): amino acid stimulation
Method: HeLa cells were subjected to starvation/refeeding protocols as described in the previous section, then lysed in ice-cold lysis buffer (150 mM NaCl, 20 mM HEPES [pH 7.4], 2 mM EDTA, 0.3% CHAPS or 1% Triton X-100, and one tablet of EDTA-free protease inhibitors per 50 ml). Cell lysates were cleared by centrifugation at 13,000 rpm for 10 minutes in a microfuge. Samples were normalized to a total concentration of 1 mg/mL protein and prepared using sample buffer at 1×, then boiled for 5 minutes at 95 C. Samples were loaded onto 10% or 12% SDS-Page gels, and analyzed by immunoblotting.
Several of these compounds were also directly tested for their ability to inhibit mTORC1 signaling in immunoblotting-based assays. […] Thus, we pursued CC 1-44 for further characterization.

[2] = molecular target: LAMTOR5 (Homo sapiens, UniProt O43504); experiment: Competitive isoTOP-ABPP with purified mTORC1, Rag GTPase and Lamtor complexes; type: binding
From the text: To identify the specific druggable hotspot targeted by YP 1-44 within the TORC1 complex, we performed a chemoproteomic study using isotopic tandem orthogonal proteolysis-enabled activity-based protein profiling (isoTOP-ABPP). IsoTOP-ABPP uses reactivity-based chemical probes to profile proteome-wide reactive, functional, and druggable hotspots directly in complex proteomes. When used in a competitive manner, small-molecule covalent ligands can be competed against the binding of reactivity-based probes to facilitate the identification of druggable hotspots targeted by lead covalent ligands (5-7) (FIG. 4A). Here, we pre-treated human purified mTORC1, Rag GTPase and Lamtor complexes with either vehicle or YP 1-44, and subsequently labeled this reconstituted system with a broad cysteine-reactive probe iodoacetamide-alkyne (IA-alkyne). Any accessible cysteine druggable hotspot would be labeled with the IA-alkyne probe in the vehicle-treated control, but the site bound by YP 1-44 would no longer accessible to IA-alkyne binding. Subsequently, we used copper-catalyzed azide-alkyne cycloaddition to append an isotopically light (for control) or heavy (for YP 1-44-treated) biotin-azide tag bearing a TEV protease recognition peptide onto probe-labeled proteins, upon which we combined the control and treated proteomes in a 1:1 ratio, followed by avidin-enrichment, tryptic digestion, and elution of probe-modified tryptic peptides by TEV protease. The resulting peptides were analyzed by LC-LC/MS/MS and light-to-heavy ratios of probe-modified peptides were quantified. We identified two cysteines within LAMTOR5, C148 and C23 that were labeled with ratios of 0.51 and 3.7, respectively. If YP 1-44 bound to a particular cysteine, we would expect a higher (>2) light-to-heavy ratio.
IsoTOP-ABPP analyses were performed using a modified version of our previously reported method (PMID 28352901, 28186401). We pre-treated human purified mTORC1, Rag GTPase and Lamtor complexes (5 micrograms each) with DMSO vehicle or YP 1-44 (50 μM) for 30 min at 37° C. in phosphate-buffered saline (PBS), and then labeled with IA-alkyne (100 μM) for 1 h at room temperature. They were subsequently treated with isotopically light (control) or heavy (treated) TEV-biotin (100 μM) and copper-catalyzed azide-alkyne cycloaddition (CuAAC). For analysis of cysteine reactivity in primary colorectal tumor tissue, tumors were pooled and incubated with either 100 μM IA-alkyne and isotopically heavy TEV-biotin or 10 μM IA-alkyne and isotopically light TEV-biotin followed by CuAAC. Proteins were precipitated over one hour and pelleted by centrifugation at 6500×g. Proteins were washed 3 times with cold methanol then denatured and resolubilized by heating in 1.2% SDS/PBS to 85° C. for 5 min. Insoluble components were precipitated by centrifugation at 6500×g and soluble proteome was diluted in 5 ml PBS, for a final concentration of 0.2% SDS. Labeled proteins were bound to avidin-agarose beads (170 μL resuspended beads/sample, Thermo Pierce) while rotating overnight at 4° C. Bead-linked proteins were enriched by washing three times each in PBS and water, then resuspended in 6 M urea/PBS (Sigma-Aldrich) and reduced in dithiothreitol (1 mM, Sigma-Aldrich), alkylated with iodoacetamide (18 mM, Sigma-Aldrich), then washed and resuspended in 2 M urea/PBS with 1 mM calcium chloride and trypsinized overnight with 0.5 μg/μl sequencing grade trypsin (Promega). […]

[3] = tested on: RagA and RagC; experiment: Immunofluorescence of Rag GTPases and LAMP2 in HEK-293A cells; type: cell-based; settings: 2 h
Method: FIGS. 6A-6D. CC 1-44 inhibits mTORC1 signaling and activates autophagy. (FIG. 6A) Visual IP experiment monitoring binding of GFP-RagB to RFP-tagged, bead-bound Lamtor complex. […] (FIG. 6B) Immunofluorescence for endogenous RagA and LAMP2 in HEK-293A cells treated with DMSO, YP 1-44 or CC 1-44 for 2 h. […] (FIG. 6C) Immunofluorescence for endogenous mTOR and LAMP2 in HEK-293A cells treated with DMSO or CC 1-44 for 2 h. […] (FIG. 6D) Immunoblotting for autophagic markers LC3b and p62 from HEK-293A cells treated with DMSO (lane 1) or CC 1-44 (lane 3) for 2 h.
Next, we investigated the mechanism of mTORC1 inhibition by CC-1-44 using visual IP and immunofluorescence. […] Indeed, when we visualized RagA and RagC localization in CC 1-44-treated cells, their localization to LAMP2-positive lysosomes was increased, not decreased as for YP 1-44 (FIG. 6B). This observation pointed to a different mechanism for mTORC1 inactivation by CC 1-44. Rather than disrupting the integrity of the LAMTOR-Rag assembly, CC 1-44 prevents its activation, causing it to strongly accumulate at the lysosome in a conformation that is unable to bind to mTORC1.

[4] = compound 50 μM, IA-alkyne 100 μM, average of n=4

SMILES | phosphorylation of canonical mTORC1 substrates S6K1, 4E-BP1 and ULK1 ([1]; 10 μM) | potency of mTORC1 blockade relative to YP 1-44 ([1]; immunoblotting) | LAMTOR5 cysteines targeted (isoTOP-ABPP) [2] | LAMTOR5 cysteines targeted (isoTOP-ABPP) ([2]; listed as CC-1-44) | RagA and RagC localization to LAMP2-positive lysosomes [3] | mTORC1-mediated signaling (p-ULK1, pS6K1, p-4E-BP1) [1] | mTORC1-mediated signaling (p-ULK1, pS6K1, p-4E-BP1) ([1]; listed as YP1-44) | isoTOP-ABPP light-to-heavy ratio, LAMTOR5 C23 [2, 4] | isoTOP-ABPP light-to-heavy ratio, LAMTOR5 C148 [2, 4]
C=CC(=O)N1CCc2c(OCc3cc(C(F)(F)F)cc(C(F)(F)F)c3)cccc21 [CC 1-44] | completely inhibited | potency comparable to YP 1-44 | modified C23 and C148 in LAMTOR5 | target C23 and C148 of LAMTOR5 | increased RagA clustering on lysosomes | – | – | – | –
C=CC(=O)n1ccc2ccccc21 [YP 1-44] | – | – | target C23 and C148 of LAMTOR5; also recorded: C23 of LAMTOR5 was the primary site; also recorded: modified C23 and C148 in LAMTOR5 | – | causes RagA dissociation from Lamtor; also recorded: decreased | completely inhibited | suppresses mTORC1 activation by amino acids | > 3 and 3.7 | 0.51
